Reference: US20260146060A1, “PHOSPHORAMIDITE CONJUGATES AND METHODS OF FORMING SYNTHETIC OLIGONUCLEOTIDES THEREFROM” (CARNEGIE MELLON UNIVERSITY, priority 2022, published 2026)

Columns and labels:
[1] = Stability assay in 10% FBS (gel electrophoresis of remaining DNA); details: 37° C., 5.3 μM; for time until entirely degraded: 10% FBS and 1X PBS
Beta* = assay: Hybridization with complementary DNA, native gel electrophoresis; assay type: binding; details: stoichiometric complementary DNA, temperature annealing, for Beta-SBiB2 the complementary strand is not stated
Source text: (§1) Hybridization-driven self-assembly has made DNA a versatile building material for nanoscience. The sequence control over SBiB incorporation in DNA can expand the availability of DNA-initiators as new precursors for the fabrication of hybrid nanomaterials. Towards such an end, the hybridization of a mixed oligonucleotide sequence containing an internal SBiB initiator residue in the middle (Beta-SBiB1) was studied with a stoichiometric amount of complementary DNA followed by temperature annealing. For hybridization experiments, two different complementary strands to Beta-SBiB1 were used: one which was fully complementary to the Beta sequence (Beta*) and another that was fully complementary to the Beta sequence with the additional inclusion of a mismatched T residue opposite the SBiB location within the Beta sequence (Beta*Tmm). Beta*Tmm was used to evaluate if the single T residue opposite the 3 carbons insert of SBiB could reduce the strain during duplex formation.
(§2) Double-stranded DNA preparation and melting curve analysis. Desired single-stranded DNA (Beta or Beta-SBiB) was mixed with a stoichiometric amount of complementary DNA (Beta* or Beta*Tmm) at a final concentration of 20 μM in 1×PBS. The DNA mixture was placed in a heat block at 95° C. for 5 min. Following the heating process, the heat block was turned off and slowly cooled to room temperature (approx. 0.5° C./min). […]

Beta*Tmm = assay: Hybridization with complementary DNA carrying a mismatched T, native gel electrophoresis; assay type: binding; details: stoichiometric complementary DNA, temperature annealing
Source text: as §1, §2

Beta-SBiB3: /i/ ACG TCG AGC AGT /i/ CAG AGC TG /i/ T
degradation ([1]; 10% FBS, after 24 hours): 46%

Beta-SBiB1: ACG TCG AGC AGT /i/ CAG AGC TGT, i = SBiB residue
hybridization (duplex formation) (Beta*): successfully hybridize
hybridization (duplex formation) (Beta*Tmm): successfully hybridize

unmodified Beta DNA: purchased 21-mer DNA, ACGTCGAGCAGTCAGAGCTGT (DNA ACGTCGAGCAGTCAGAGCTGT; unmodified DNA)
time until entirely degraded ([1]; in the absence of free pOEOMA): ≤ 12 h
time until entirely degraded ([1]; in the presence of free pOEOMA in the supernatant): ≤ 12 h
